Laboratory results reported in PMC11192711, “Automated radiosynthesis and preclinical evaluation of two new PSMA-617 derivatives radiolabelled via [^18F]AlF^2+ method” (EJNMMI Radiopharmacy and Chemistry, 2024).

Test system: LNCaP tumour-bearing NSG mice
Assay: PET/CT in vivo biodistribution and tumour uptake in subcutaneous LNCaP prostate cancer xenograft model
Details: n = 4; for Bone (SUV mean) / Brain (SUV mean) / Colon (SUV mean) / Gall bladder (SUV mean) / Heart (SUV mean) / Kidney (SUV mean) / Liver (SUV mean) / Lung (SUV mean) / Muscle (SUV mean) / Salivary gland (SUV mean) / Small instestine (SUV mean): LNCaP NSG male mice, i.v., PET/CT; for ratio between tumour and muscle (tumour SUV max/muscle SUV mean) / uptake in the tumour expressed as SUV max: LNCaP tumour, NSG mice
Protocol: The uptake of [^18F]F-PSMA-1007 and [^18F]F-PSMA-617-NODA ([^18F]1) was compared in vivo in a xenograft model of human prostate cancer obtained using LNCaP cells which are PSMA positive, as confirmed by real time PCR-analysis (Additional file 1: S69A). LNCaP tumour-bearing NSG mice were injected i.v. with either [^18F]F-PSMA-1007 or [^18F]F-PSMA-617-NODA (~ 3.8 MBq/mouse, ~ 20 pmol for [^18F]F-PSMA-1007 and ~ 50 pmol [^18F]1). Radiotracer uptake was assessed after 10, 60 and 120 min post injection by whole-body PET/CT acquisitions.
Total body biodistribution of [^18F]F-PSMA-1007, [^18F]F-PSMA-617-NODA and [^18F]F-PSMA-617-RESCA was evaluated in vivo using imaging PET/CT. [^18F]F-PSMA-617-NODA uptake was compared to that of the [^18F]F-PSMA-1007 in a PSMA positive prostate tumour xenograft model (LNCaP). [^18F]F-PSMA-617-NODA and [^18F]F-PSMA-617-RESCA uptake were also evaluated using an orthotopic glioma model (Gli36ΔEGFR).
Animal experiments were carried out in compliance with institutional guidelines for the care and the use of experimental animals, which have been authorized by the Italian Ministry of Health (n° 378/2019-PR and 817/2021-PR). The animals were housed at constant temperature (23 °C) and relative humidity (40%) under a regular light/dark cycle with food and water available ad libitum. Seven to eight weeks old male NSG mice (Charles River Laboratories Italia s.r.l., Italy) were subcutaneously inoculated in the right flank with 5 × 10^6 of PSMA‐positive human prostate cancer cells (LNCaP) suspended in matrigel (1: 1, total volume 200 ul). The growth tumour was monitored periodically with calliper and tumour volume was calculated using the following formula: […]
When the tumour volume was about 230.8 ± 60.3 mm^3 (approximately 15 days after tumour cells inoculation), 4 animals performed an in vivo biodistribution of [^18F]F-PSMA-1007 and [^18F]F-PSMA-617-NODA, on successive but non-consecutive days, using PET/CT.
Mice were injected into a tail vein with 3.8 ± 0.1 MBq of [^18F]F-PSMA-1007, 4.0 ± 0.2 MBq of [^18F]F-PSMA-617-NODA ([^18F]1) and 3.8 ± 0.1 MBq of [^18F]F-PSMA-617-RESCA ([^18F]2), respectively.
Total body PET/CT acquisitions were performed using PET/CT tomographs dedicated to small animals, X-ß-CUBE (Molecubes, Gent, Belgium) after 10, 60 and 120 min from tracer injection. Each acquisition lasted 30 min and mice were maintained anesthetized (4% isoflurane in induction and 2% in maintenance in air) during acquisition.
Image quantification analysis was performed with PMOD 4.105 software (Zurich, Switzerland). Volumes of interest (VOIs) were drawn on peripheral organs (tumour, thoracic muscle, heart, liver, kidney, salivary glands, lung, small intestine, colon, bone, gall bladder) and on the healthy brain using CT images. For the glioma model, PET/CT images were co-registered to MRI images and two different VOIs were defined: (1) a control VOI covering the healthy left striatum (volume 4 mm^3) was drawn on the axial MR images, adjusted on the other imaging planes and then copied on the PET images of each mouse; (2) a second glioma-covering VOI was drawn in the tumour-affected brain hemisphere and centered on mice lesions.
For quantification, Standardized Uptake Value (SUV) was calculated according to the formula:
SUV = organ concentration activity [MBq/g]/(injected activity [MBq]/animal weight [g]).
The data were expressed as standardized-uptake-values (SUVmean and SUVmax) and as tumour-to-muscle (T/M) and tumour-to-blood (T/B) ratio in PCa model and as tumour-to-contralateral (T/Cl) ratio in glioma model.

O=C(O)CC[C@H](NC(=O)N[C@@H](CCCCNC(=O)[C@H](Cc1ccc2ccccc2c1)NC(=O)c1ccc(CNC(=O)[C@H](CCC(=O)O)NC(=O)[C@H](CCC(=O)O)NC(=O)c2ccc([18F])nc2)cc1)C(=O)O)C(=O)O [[^18F]F-PSMA-1007, reference compound]
Bone (SUV mean) (10 min p.i.): 0.36 ± 0.09 | Brain (SUV mean) (10 min p.i.): 0.12 ± 0.02 | Colon (SUV mean) (10 min p.i.): 0.35 ± 0.27 | Gall bladder (SUV mean) (10 min p.i.): 0.99 ± 0.40 | Heart (SUV mean) (10 min p.i.): 0.38 ± 0.09 | Kidney (SUV mean) (10 min p.i.): 9.55 ± 2.63 | Liver (SUV mean) (10 min p.i.): 0.50 ± 0.04 | Lung (SUV mean) (10 min p.i.): 0.46 ± 0.09 | Muscle (SUV mean) (10 min p.i.): 0.23 ± 0.03 | Salivary gland (SUV mean) (10 min p.i.): 1.40 ± 0.25 | Small instestine (SUV mean) (10 min p.i.): 0.60 ± 0.05 | Bone (SUV mean) (60 min p.i.): 0.26 ± 0.09 | Brain (SUV mean) (60 min p.i.): 0.09 ± 0.03 | Colon (SUV mean) (60 min p.i.): 0.28 ± 0.14 | Gall bladder (SUV mean) (60 min p.i.): 1.02 ± 0.43 | Heart (SUV mean) (60 min p.i.): 0.28 ± 0.06 | Kidney (SUV mean) (60 min p.i.): 12.04 ± 2.49 | Liver (SUV mean) (60 min p.i.): 0.33 ± 0.06 | Lung (SUV mean) (60 min p.i.): 0.40 ± 0.16 | Muscle (SUV mean) (60 min p.i.): 0.20 ± 0.04 | Salivary gland (SUV mean) (60 min p.i.): 1.40 ± 0.20 | Small instestine (SUV mean) (60 min p.i.): 0.49 ± 0.12 | Bone (SUV mean) (120 min p.i.): 0.21 ± 0.08 | Brain (SUV mean) (120 min p.i.): 0.10 ± 0.03 | Colon (SUV mean) (120 min p.i.): 0.26 ± 0.08 | Gall bladder (SUV mean) (120 min p.i.): 0.75 ± 0.48 | Heart (SUV mean) (120 min p.i.): 0.24 ± 0.03 | Kidney (SUV mean) (120 min p.i.): 14.49 ± 1.41 | Liver (SUV mean) (120 min p.i.): 0.21 ± 0.02 | Lung (SUV mean) (120 min p.i.): 0.31 ± 0.07 | Muscle (SUV mean) (120 min p.i.): 0.15 ± 0.05 | Salivary gland (SUV mean) (120 min p.i.): 1.58 ± 0.12 | Small instestine (SUV mean) (120 min p.i.): 0.30 ± 0.07 | ratio between tumour and muscle (tumour SUV max/muscle SUV mean) (60 min p.i.): 7.46 ± 1.55 | uptake in the tumour expressed as SUV max (60 min p.i.): 1.48 ± 0.29 | ratio between tumour and muscle (tumour SUV max/muscle SUV mean) (120 min p.i.): 11.99 ± 6.16 | uptake in the tumour expressed as SUV max (120 min p.i.): 1.60 ± 0.44
